Laboratory results: ChEMBL document CHEMBL3045603, “Synthesis and Microbiological Evaluation of Some N-Methyl Piperidone Oxime Ethers” (2005)
In brackets after ≈: the same amount, converted by molar mass. Activity calls are given as the source filed them. The calls are words filed in the database; no cut-off is given here.

Tests used:
[1] = system: Salmonella typhi; assay: Antibacterial activity against Salmonella enterica subsp. enterica serovar Typhi after 24 hr by two-fold serial dilution method; format: functional
[2] = system: Aspergillus niger; assay: Antifungal activity against Aspergillus niger after 72 to 96 hr by two-fold serial dilution method; format: functional
[3] = system: Candida albicans; assay: Antifungal activity against Candida albicans after 72 to 96 hr by two-fold serial dilution method; format: functional
[4] = system: Aspergillus flavus; assay: Antifungal activity against Aspergillus flavus after 72 to 96 hr by two-fold serial dilution method; format: functional
[5] = system: Rhizopus; assay: Antifungal activity against Rhizopus sp. after 72 to 96 hr by two-fold serial dilution method; format: functional
[6] = system: Cryptococcus neoformans; assay: Antifungal activity against Cryptococcus neoformans after 72 to 96 hr by two-fold serial dilution method; format: functional
[7] = system: Klebsiella pneumoniae; assay: Antibacterial activity against Klebsiella pneumoniae after 24 hr by two-fold serial dilution method; format: functional
[8] = system: Pseudomonas aeruginosa; assay: Antibacterial activity against Pseudomonas aeruginosa after 24 hr by two-fold serial dilution method; format: functional
[9] = system: Staphylococcus aureus; assay: Antibacterial activity against Staphylococcus aureus after 24 hr by two-fold serial dilution method; format: functional
[10] = system: Escherichia coli; assay: Antibacterial activity against Escherichia coli after 24 hr by two-fold serial dilution method; format: functional
[11] = system: Klebsiella pneumoniae; assay: Ratio of ciprofloxacin MIC to compound MIC for Klebsiella pneumoniae; format: functional
[12] = system: Salmonella typhi; assay: Ratio of ciprofloxacin MIC to compound MIC for Salmonella enterica subsp. enterica serovar Typhi; format: functional
[13] = system: Escherichia coli; assay: Ratio of ciprofloxacin MIC to compound MIC for Escherichia coli; format: functional
[14] = system: Staphylococcus aureus; assay: Ratio of ciprofloxacin MIC to compound MIC Staphylococcus aureus; format: functional
[15] = system: Klebsiella pneumoniae; assay: Antibacterial activity against Klebsiella pneumoniae at 200 ug/mL after 24 hr by two-fold serial dilution method; format: functional, organism-based
[16] = system: Rhizopus; assay: Antifungal activity against Rhizopus sp. at 200 ug/ml after 72 to 96 hr by two-fold serial dilution method; format: functional, organism-based
[17] = system: Candida albicans; assay: Antifungal activity against Candida albicans at 200 ug/ml after 72 to 96 hr by two-fold serial dilution method; format: functional, organism-based
[18] = system: Aspergillus flavus; assay: Antifungal activity against Aspergillus flavus at 200 ug/ml after 72 to 96 hr by two-fold serial dilution method; format: functional, organism-based
[19] = system: Cryptococcus neoformans; assay: Ratio of amphotericin-B MIC to compound MIC for Cryptococcus neoformans; format: functional
[20] = system: Aspergillus niger; assay: Ratio of amphotericin-B MIC to compound MIC for Aspergillus niger; format: functional

SMILES | MIC [1] [µg/mL] | MIC [2] [µg/mL] | MIC [3] [µg/mL] | MIC [4] [µg/mL] | MIC [5] [µg/mL] | MIC [6] [µg/mL] | MIC [7] [µg/mL] | MIC [8] [µg/mL] | MIC [9] [µg/mL] | MIC [10] [µg/mL] | Ratio [11] | Ratio [12] | Ratio [13] | Ratio [14] | inhibition [15] | inhibition [16] | inhibition [17] | inhibition [18] | Ratio [19] | Ratio [20]
COc1ccc(C2CC(=NOCc3ccccc3)CC(c3ccc(OC)cc3)N2C)cc1 (centres undefined) | 50 (≈ 116 µM) | 50 (≈ 116 µM) | 100 (≈ 232 µM) | 50 (≈ 116 µM) | 50 (≈ 116 µM) | 50 (≈ 116 µM) | 100 (≈ 232 µM) | 100 (≈ 232 µM) | 50 (≈ 116 µM) | 100 (≈ 232 µM) | – | – | – | – | – | – | – | – | – | –
CC1/C(=N\OCc2ccccc2)CC(c2ccc(Cl)cc2)N(C)C1c1ccc(Cl)cc1 (centres undefined) | 25 (≈ 55.1 µM) | 25 (≈ 55.1 µM) | 100 (≈ 221 µM) | 50 (≈ 110 µM) | 100 (≈ 221 µM) | 25 (≈ 55.1 µM) | 25 (≈ 55.1 µM) | 50 (≈ 110 µM) | 50 (≈ 110 µM) | 12.5 (≈ 27.6 µM) | 1 | 1 | 1 | – | – | – | – | – | – | –
COc1ccc(C2C/C(=N/OCc3ccccc3)C(C)C(c3ccc(OC)cc3)N2C)cc1 (centres undefined) | 50 (≈ 112 µM) | 25 (≈ 56.2 µM) | 25 (≈ 56.2 µM) | 25 (≈ 56.2 µM) | 12.5 (≈ 28.1 µM) | 12.5 (≈ 28.1 µM) | 25 (≈ 56.2 µM) | 12.5 (≈ 28.1 µM) | 12.5 (≈ 28.1 µM) | 25 (≈ 56.2 µM) | 2 | – | – | 2 | – | – | – | – | – | –
CC1/C(=N\OCc2ccccc2)CC(c2ccccc2)N(C)C1c1ccccc1 (centres undefined) | 100 (≈ 260 µM) | 50 (≈ 130 µM) | 200 (≈ 520 µM) | 100 (≈ 260 µM) | – | 100 (≈ 260 µM) | – | 50 (≈ 130 µM) | 100 (≈ 260 µM) | 100 (≈ 260 µM) | – | – | – | – | inactive | inactive | – | – | – | –
Cc1ccc(C2CC(=NOCc3ccccc3)CC(c3ccc(C)cc3)N2C)cc1 (centres undefined) | 100 (≈ 251 µM) | 50 (≈ 125 µM) | 100 (≈ 251 µM) | 100 (≈ 251 µM) | 50 (≈ 125 µM) | 50 (≈ 125 µM) | 100 (≈ 251 µM) | 100 (≈ 251 µM) | 100 (≈ 251 µM) | 50 (≈ 125 µM) | – | – | – | – | – | – | – | – | – | –
CN1C(c2ccccc2)CC(=NOCc2ccccc2)CC1c1ccccc1 (centres undefined) | 100 (≈ 270 µM) | 100 (≈ 270 µM) | – | – | – | 100 (≈ 270 µM) | – | 100 (≈ 270 µM) | 200 (≈ 540 µM) | 200 (≈ 540 µM) | – | – | – | – | inactive | inactive | inactive | inactive | – | –
CN1C(c2ccc(Cl)cc2)CC(=NOCc2ccccc2)CC1c1ccc(Cl)cc1 (centres undefined) | 100 (≈ 228 µM) | 100 (≈ 228 µM) | 100 (≈ 228 µM) | 200 (≈ 455 µM) | 200 (≈ 455 µM) | 50 (≈ 114 µM) | 100 (≈ 228 µM) | 100 (≈ 228 µM) | 200 (≈ 455 µM) | 50 (≈ 114 µM) | – | – | – | – | – | – | – | – | – | –
Cc1ccc(C2C/C(=N/OCc3ccccc3)C(C)C(c3ccc(C)cc3)N2C)cc1 (centres undefined) | 50 (≈ 121 µM) | 25 (≈ 60.6 µM) | 50 (≈ 121 µM) | 50 (≈ 121 µM) | 25 (≈ 60.6 µM) | 12.5 (≈ 30.3 µM) | 50 (≈ 121 µM) | 25 (≈ 60.6 µM) | 50 (≈ 121 µM) | 50 (≈ 121 µM) | – | – | – | – | – | – | – | – | 2 | 2
C[C@@H]1[C@H](O)[C@@H](C)/C=C/C=C/C=C/C=C/C=C/C=C/C=C/[C@H](O[C@@H]2O[C@H](C)[C@@H](O)[C@H](N)[C@@H]2O)C[C@@H]2O[C@](O)(C[C@@H](O)C[C@@H](O)[C@H](O)CC[C@@H](O)C[C@@H](O)CC(=O)O[C@H]1C)C[C@H](O)[C@H]2C(=O)O [AMPHOTERICIN B] | – | 50 (≈ 54.1 µM) | 25 (≈ 27.1 µM) | 50 (≈ 54.1 µM) | 25 (≈ 27.1 µM) | 25 (≈ 27.1 µM) | – | – | – | – | – | – | – | – | – | – | – | – | – | –
CCC1/C(=N\OCc2ccccc2)CC(c2ccccc2)N(C)C1c1ccccc1 (centres undefined) | 50 (≈ 125 µM) | 50 (≈ 125 µM) | 100 (≈ 251 µM) | 100 (≈ 251 µM) | 100 (≈ 251 µM) | 50 (≈ 125 µM) | 200 (≈ 502 µM) | 25 (≈ 62.7 µM) | 100 (≈ 251 µM) | 100 (≈ 251 µM) | – | – | – | – | – | – | – | – | – | –
O=C(O)c1cn(C2CC2)c2cc(N3CCNCC3)c(F)cc2c1=O [CIPROFLOXACIN] | 50 (≈ 151 µM) | – | – | – | – | – | – | – | – | 25 (≈ 75.4 µM) | – | – | – | – | – | – | – | – | – | –
CC(C)C1/C(=N\OCc2ccccc2)CC(c2ccccc2)N(C)C1c1ccccc1 (centres undefined) | 50 (≈ 121 µM) | 100 (≈ 242 µM) | 50 (≈ 121 µM) | – | 200 (≈ 485 µM) | 25 (≈ 60.6 µM) | 100 (≈ 242 µM) | 50 (≈ 121 µM) | 100 (≈ 242 µM) | 50 (≈ 121 µM) | – | – | – | – | – | – | – | inactive | – | –
